# Experimental data taken from paper PMC11842588, “A first-in-class selective inhibitor of ERK1/2 and ERK5 overcomes drug resistance with a single-molecule strategy” (Signal Transduction and Targeted Therapy, 2025).
# Experiments:
# Experiment in all cases: Kinase profiling
# Format in all cases: biochemical
# [1] = target: T1, DCAMKL2(h) (Homo sapiens, UniProt Q8N568)
# T1 construct: purchased Eurofins Cerep SA (KinaseProfiler)
# Description: (§1) 380 kinases inhibitory activities of SKLB-D18 were conducted by Eurofins Cerep SA. The result was illustrated by kinase tree (http://www.kinhub.org/kinmap/).
# [2] = target: T2, PrKX(h) (Homo sapiens, UniProt P51817)
# T2 construct: purchased Eurofins Cerep SA (KinaseProfiler)
# Description: as §1
# [3] = target: T3, ATM(h) (Homo sapiens, UniProt Q13315)
# T3 construct: purchased Eurofins Cerep SA (KinaseProfiler)
# Description: as §1
# [4] = target: T4, NDR1(h) (Homo sapiens, UniProt Q15208)
# T4 construct: purchased Eurofins Cerep SA (KinaseProfiler)
# Description: as §1
# [5] = target: T5, Aurora-A(h) (Homo sapiens, UniProt O14965)
# T5 construct: purchased Eurofins Cerep SA (KinaseProfiler)
# Description: as §1
# [6] = target: T6, MAPKAP-K3(h) (Homo sapiens, UniProt Q16644)
# T6 construct: purchased Eurofins Cerep SA (KinaseProfiler)
# Description: as §1
# [7] = target: T7, Cdc7/cyclinB1(h) (Homo sapiens, UniProt O00311)
# T7 construct: purchased Eurofins Cerep SA (KinaseProfiler)
# Description: as §1
# [8] = target: T8, BIKe(h) (Homo sapiens, UniProt Q9NSY1)
# T8 construct: purchased Eurofins Cerep SA (KinaseProfiler)
# Description: as §1
# [9] = target: T9, CDK2/cyclinE(h) (Homo sapiens, UniProt P24941)
# T9 construct: purchased Eurofins Cerep SA (KinaseProfiler)
# Description: as §1
# [10] = target: T10, cKit(h) (Homo sapiens, UniProt P10721)
# T10 construct: purchased Eurofins Cerep SA (KinaseProfiler)
# Description: as §1
# [11] = target: T11, GAK(h) (Homo sapiens, UniProt O14976)
# T11 construct: purchased Eurofins Cerep SA (KinaseProfiler)
# Description: as §1
# [12] = target: T12, TAF1L(h) (Homo sapiens, UniProt Q8IZX4)
# T12 construct: purchased Eurofins Cerep SA (KinaseProfiler)
# Description: as §1
# [13] = target: T13, Aurora-B(h) (Homo sapiens, UniProt Q96GD4)
# T13 construct: purchased Eurofins Cerep SA (KinaseProfiler)
# Description: as §1
# [14] = target: T14, Plk3(h) (Homo sapiens, UniProt Q9H4B4)
# T14 construct: purchased Eurofins Cerep SA (KinaseProfiler)
# Description: as §1
# [15] = target: T15, Rsk1(h) (Homo sapiens, UniProt Q15418)
# T15 construct: purchased Eurofins Cerep SA (KinaseProfiler)
# Description: as §1
# [16] = target: T16, NEK7(h) (Homo sapiens, UniProt Q8TDX7)
# T16 construct: purchased Eurofins Cerep SA (KinaseProfiler)
# Description: as §1
# [17] = target: T17, JAK1(h) (Homo sapiens, UniProt P23458)
# T17 construct: purchased Eurofins Cerep SA (KinaseProfiler)
# T17 sequence (P23458 whole entry): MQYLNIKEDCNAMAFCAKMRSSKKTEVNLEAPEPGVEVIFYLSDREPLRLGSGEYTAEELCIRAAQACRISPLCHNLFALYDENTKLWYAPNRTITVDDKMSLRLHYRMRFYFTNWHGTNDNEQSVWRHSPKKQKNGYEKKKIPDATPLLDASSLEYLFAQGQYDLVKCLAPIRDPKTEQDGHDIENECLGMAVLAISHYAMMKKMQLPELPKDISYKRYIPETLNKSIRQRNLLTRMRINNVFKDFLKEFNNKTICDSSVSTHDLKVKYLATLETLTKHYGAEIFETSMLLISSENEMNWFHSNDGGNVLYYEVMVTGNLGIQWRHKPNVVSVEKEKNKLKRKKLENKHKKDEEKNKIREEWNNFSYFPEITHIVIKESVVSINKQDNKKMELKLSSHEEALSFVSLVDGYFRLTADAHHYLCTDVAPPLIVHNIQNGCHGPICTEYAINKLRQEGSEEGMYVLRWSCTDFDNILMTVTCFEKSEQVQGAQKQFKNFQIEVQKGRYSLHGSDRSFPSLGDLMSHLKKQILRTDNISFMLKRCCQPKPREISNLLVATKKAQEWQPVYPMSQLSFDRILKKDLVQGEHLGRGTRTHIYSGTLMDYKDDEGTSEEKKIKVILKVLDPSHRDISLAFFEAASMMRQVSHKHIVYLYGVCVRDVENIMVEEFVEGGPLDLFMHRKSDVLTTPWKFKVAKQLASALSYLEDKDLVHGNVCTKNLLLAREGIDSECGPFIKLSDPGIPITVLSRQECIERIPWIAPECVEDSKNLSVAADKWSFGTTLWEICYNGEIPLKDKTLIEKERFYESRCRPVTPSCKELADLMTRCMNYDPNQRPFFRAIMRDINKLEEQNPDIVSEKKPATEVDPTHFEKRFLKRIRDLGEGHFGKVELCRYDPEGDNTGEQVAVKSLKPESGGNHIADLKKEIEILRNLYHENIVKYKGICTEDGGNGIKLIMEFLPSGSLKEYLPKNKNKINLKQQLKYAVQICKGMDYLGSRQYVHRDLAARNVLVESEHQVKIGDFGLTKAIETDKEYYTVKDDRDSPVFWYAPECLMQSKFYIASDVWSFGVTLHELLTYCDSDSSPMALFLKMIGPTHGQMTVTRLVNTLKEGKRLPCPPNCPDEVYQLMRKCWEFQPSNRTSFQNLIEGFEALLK
# Description: as §1
# [18] = target: T18, SIK2(h) (Homo sapiens, UniProt Q9H0K1)
# T18 construct: purchased Eurofins Cerep SA (KinaseProfiler)
# T18 sequence (Q9H0K1 whole entry): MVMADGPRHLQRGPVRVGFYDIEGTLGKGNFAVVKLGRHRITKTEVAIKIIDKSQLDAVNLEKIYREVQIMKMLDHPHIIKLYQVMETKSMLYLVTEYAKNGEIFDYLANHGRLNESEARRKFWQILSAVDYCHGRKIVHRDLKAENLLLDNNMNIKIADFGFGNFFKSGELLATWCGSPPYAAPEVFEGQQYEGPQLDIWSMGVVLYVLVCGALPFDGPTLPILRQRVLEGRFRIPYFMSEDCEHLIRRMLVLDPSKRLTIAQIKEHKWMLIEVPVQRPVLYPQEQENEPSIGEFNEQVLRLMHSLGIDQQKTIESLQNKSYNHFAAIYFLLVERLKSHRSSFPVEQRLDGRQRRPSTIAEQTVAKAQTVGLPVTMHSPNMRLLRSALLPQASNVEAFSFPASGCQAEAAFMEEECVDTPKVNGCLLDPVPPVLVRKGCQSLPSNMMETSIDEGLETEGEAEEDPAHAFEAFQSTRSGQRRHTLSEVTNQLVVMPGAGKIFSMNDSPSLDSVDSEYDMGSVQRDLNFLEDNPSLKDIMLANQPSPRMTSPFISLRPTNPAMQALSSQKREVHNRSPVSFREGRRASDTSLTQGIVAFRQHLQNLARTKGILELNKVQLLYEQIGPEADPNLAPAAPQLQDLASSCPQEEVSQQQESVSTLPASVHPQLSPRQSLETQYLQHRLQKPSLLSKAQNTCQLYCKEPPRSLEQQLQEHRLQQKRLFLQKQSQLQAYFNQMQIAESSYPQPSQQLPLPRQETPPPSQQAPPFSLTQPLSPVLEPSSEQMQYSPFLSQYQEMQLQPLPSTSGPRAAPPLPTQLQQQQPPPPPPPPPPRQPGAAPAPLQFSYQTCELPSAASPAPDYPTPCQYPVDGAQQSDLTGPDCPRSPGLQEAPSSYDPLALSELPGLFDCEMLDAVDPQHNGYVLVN
# Description: as §1
# [19] = target: T19, GCN2(h) (Homo sapiens, UniProt Q9P2K8)
# T19 construct: purchased Eurofins Cerep SA (KinaseProfiler)
# Description: as §1
# [20] = target: T20, Flt3(h) (Homo sapiens, UniProt P36888)
# T20 construct: purchased Eurofins Cerep SA (KinaseProfiler)
# T20 sequence (P36888 27-993): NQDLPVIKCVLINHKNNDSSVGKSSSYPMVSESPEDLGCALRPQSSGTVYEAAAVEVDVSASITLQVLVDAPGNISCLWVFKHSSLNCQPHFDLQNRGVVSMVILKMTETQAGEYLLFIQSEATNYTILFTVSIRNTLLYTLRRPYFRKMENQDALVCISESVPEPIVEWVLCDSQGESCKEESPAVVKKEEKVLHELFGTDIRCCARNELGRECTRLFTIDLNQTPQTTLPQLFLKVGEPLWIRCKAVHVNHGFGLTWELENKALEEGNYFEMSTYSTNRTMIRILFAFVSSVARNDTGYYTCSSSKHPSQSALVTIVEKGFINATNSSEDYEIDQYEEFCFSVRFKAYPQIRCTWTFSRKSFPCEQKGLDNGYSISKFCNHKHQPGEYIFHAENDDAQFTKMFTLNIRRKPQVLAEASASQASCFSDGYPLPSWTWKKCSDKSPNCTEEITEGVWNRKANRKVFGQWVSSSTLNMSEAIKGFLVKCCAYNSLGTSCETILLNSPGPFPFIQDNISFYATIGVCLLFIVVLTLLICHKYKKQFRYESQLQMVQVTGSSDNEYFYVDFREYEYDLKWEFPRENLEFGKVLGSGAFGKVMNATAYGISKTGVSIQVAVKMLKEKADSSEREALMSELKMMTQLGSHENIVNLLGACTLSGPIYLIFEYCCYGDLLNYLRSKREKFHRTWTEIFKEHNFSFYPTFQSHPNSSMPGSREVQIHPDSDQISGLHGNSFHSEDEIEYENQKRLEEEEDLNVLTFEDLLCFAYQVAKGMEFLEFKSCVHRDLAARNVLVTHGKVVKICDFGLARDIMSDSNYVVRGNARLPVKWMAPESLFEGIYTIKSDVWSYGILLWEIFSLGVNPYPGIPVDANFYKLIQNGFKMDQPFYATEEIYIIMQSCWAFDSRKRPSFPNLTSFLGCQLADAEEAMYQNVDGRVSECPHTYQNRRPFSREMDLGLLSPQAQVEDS
# Description: as §1
# [21] = target: T21, CLK4(h) (Homo sapiens, UniProt Q9HAZ1)
# T21 construct: purchased Eurofins Cerep SA (KinaseProfiler)
# Description: as §1
# [22] = target: T22, HIPK4(h) (Homo sapiens, UniProt Q8NE63)
# T22 construct: purchased Eurofins Cerep SA (KinaseProfiler)
# T22 sequence (Q8NE63 whole entry): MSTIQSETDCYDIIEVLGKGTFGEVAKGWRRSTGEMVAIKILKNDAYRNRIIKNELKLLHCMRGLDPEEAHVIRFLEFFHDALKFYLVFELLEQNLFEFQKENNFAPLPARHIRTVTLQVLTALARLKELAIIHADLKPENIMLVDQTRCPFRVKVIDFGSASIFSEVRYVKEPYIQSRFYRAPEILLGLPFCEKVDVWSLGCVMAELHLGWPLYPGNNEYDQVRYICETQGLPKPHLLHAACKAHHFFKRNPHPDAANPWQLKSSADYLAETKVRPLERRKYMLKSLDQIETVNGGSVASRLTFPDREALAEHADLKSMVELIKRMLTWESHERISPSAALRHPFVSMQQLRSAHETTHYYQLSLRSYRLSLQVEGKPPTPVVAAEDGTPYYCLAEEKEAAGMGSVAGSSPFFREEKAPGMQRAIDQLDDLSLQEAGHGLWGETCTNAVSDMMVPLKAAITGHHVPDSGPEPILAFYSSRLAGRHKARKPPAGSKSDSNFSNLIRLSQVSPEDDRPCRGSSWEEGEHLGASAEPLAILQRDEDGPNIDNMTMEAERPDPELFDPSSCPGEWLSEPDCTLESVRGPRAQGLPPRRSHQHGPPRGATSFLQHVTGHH
# Description: as §1
# [23] = target: T23, PKCθ(h) (Homo sapiens, UniProt Q04759)
# T23 construct: purchased Eurofins Cerep SA (KinaseProfiler)
# Description: as §1
# [24] = target: T24, PRKG2(h) (Homo sapiens, UniProt Q13237)
# T24 construct: purchased Eurofins Cerep SA (KinaseProfiler)
# Description: as §1
# [25] = target: T25, ALK(h) (Homo sapiens, UniProt Q9UM73)
# T25 construct: purchased Eurofins Cerep SA (KinaseProfiler)
# Description: as §1
# [26] = target: T26, PASK(h) (Homo sapiens, UniProt Q96RG2)
# T26 construct: purchased Eurofins Cerep SA (KinaseProfiler)
# Description: as §1
# [27] = target: T27, MST1(h) (Homo sapiens, UniProt Q13043)
# T27 construct: purchased Eurofins Cerep SA (KinaseProfiler)
# Description: as §1
# [28] = target: T28, PIP4K2a(h) (Homo sapiens, UniProt P48426)
# T28 construct: purchased Eurofins Cerep SA (KinaseProfiler)
# Description: as §1
# [29] = target: T29, Bmx(h) (Homo sapiens, UniProt P51813)
# T29 construct: purchased Eurofins Cerep SA (KinaseProfiler)
# Description: as §1
# [30] = target: T30, ZAP-70(h) (Homo sapiens, UniProt P43403)
# T30 construct: purchased Eurofins Cerep SA (KinaseProfiler)
# Description: as §1
# [31] = target: T31, PAK4(h) (Homo sapiens, UniProt O96013)
# T31 construct: purchased Eurofins Cerep SA (KinaseProfiler)
# T31 sequence (O96013 whole entry): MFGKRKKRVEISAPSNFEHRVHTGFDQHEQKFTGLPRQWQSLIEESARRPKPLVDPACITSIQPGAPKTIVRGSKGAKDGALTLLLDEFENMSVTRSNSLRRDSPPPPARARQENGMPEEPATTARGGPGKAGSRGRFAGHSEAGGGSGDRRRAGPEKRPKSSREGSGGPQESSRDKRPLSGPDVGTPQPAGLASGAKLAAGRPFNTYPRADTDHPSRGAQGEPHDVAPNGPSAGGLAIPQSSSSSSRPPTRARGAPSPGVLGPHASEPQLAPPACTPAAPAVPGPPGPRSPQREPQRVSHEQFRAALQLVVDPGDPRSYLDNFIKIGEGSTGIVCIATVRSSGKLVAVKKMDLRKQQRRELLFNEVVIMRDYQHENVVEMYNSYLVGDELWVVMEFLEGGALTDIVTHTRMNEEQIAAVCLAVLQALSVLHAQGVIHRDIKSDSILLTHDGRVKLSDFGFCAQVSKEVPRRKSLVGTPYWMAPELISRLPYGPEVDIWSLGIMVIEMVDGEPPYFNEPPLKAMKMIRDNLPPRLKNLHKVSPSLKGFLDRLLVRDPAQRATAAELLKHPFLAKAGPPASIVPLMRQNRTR
# Description: as §1
# [32] = target: T32, GRK5(h) (Homo sapiens, UniProt P34947)
# T32 construct: purchased Eurofins Cerep SA (KinaseProfiler)
# Description: as §1
# [33] = target: T33, ICK(h) (Homo sapiens, UniProt Q9UPZ9)
# T33 construct: purchased Eurofins Cerep SA (KinaseProfiler)
# T33 sequence (Q9UPZ9 whole entry): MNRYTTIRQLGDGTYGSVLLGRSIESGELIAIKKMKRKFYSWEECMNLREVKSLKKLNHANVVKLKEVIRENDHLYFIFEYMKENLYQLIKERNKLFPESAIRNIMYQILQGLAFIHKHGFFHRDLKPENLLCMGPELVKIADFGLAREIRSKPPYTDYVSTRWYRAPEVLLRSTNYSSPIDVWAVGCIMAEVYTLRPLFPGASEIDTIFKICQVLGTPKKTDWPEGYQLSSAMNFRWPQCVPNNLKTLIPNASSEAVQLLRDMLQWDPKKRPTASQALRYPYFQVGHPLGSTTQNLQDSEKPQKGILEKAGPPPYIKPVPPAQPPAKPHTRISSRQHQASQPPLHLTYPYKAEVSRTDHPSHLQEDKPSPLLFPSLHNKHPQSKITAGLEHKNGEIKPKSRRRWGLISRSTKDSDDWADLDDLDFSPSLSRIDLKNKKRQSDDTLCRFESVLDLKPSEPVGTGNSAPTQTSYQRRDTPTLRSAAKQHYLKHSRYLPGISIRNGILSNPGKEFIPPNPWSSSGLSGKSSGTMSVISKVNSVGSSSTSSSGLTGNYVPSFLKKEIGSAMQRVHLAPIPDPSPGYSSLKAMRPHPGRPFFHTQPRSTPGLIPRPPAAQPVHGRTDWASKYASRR
# Description: as §1
# [34] = target: T34, STK25(h) (Homo sapiens, UniProt O00506)
# T34 construct: purchased Eurofins Cerep SA (KinaseProfiler)
# Description: as §1
# [35] = target: T35, JNK2α2(h) (Homo sapiens, UniProt P45984)
# T35 construct: purchased Eurofins Cerep SA (KinaseProfiler)
# Description: as §1
# [36] = target: T36, NEK4(h) (Homo sapiens, UniProt P51957)
# T36 construct: purchased Eurofins Cerep SA (KinaseProfiler)
# Description: as §1
# [37] = target: T37, IR(h), activated (Homo sapiens, UniProt P06213)
# T37 construct: purchased Eurofins Cerep SA (KinaseProfiler)
# Description: as §1
# [38] = target: T38, ZIPK(h) (Homo sapiens, UniProt O43293)
# T38 construct: purchased Eurofins Cerep SA (KinaseProfiler)
# Description: as §1
# [39] = target: T39, PKR(h) (Homo sapiens, UniProt P19525)
# T39 construct: purchased Eurofins Cerep SA (KinaseProfiler)
# Description: as §1
# [40] = target: T40, SGK3(h) (Homo sapiens, UniProt Q96BR1)
# T40 construct: purchased Eurofins Cerep SA (KinaseProfiler)
# Description: as §1
# [41] = target: T41, CLK2(h) (Homo sapiens, UniProt P49760)
# T41 construct: purchased Eurofins Cerep SA (KinaseProfiler)
# Description: as §1
compound,measurement,setting,value
"CN(C)Cc1cccc(Nc2ncc(Cl)c(-c3csc(C(=O)NN4CCOCC4)c3)n2)c1 [SKLB-D18, 4-(5-chloro-2-((3-((dimethylamino)methyl)phenyl)amino)pyrimidin-4-yl)-N-morpholinothiophene-2-carboxamide]",inhibition at 1 µM,[1],55%
same,inhibition at 1 µM,[2],43%
same,inhibition at 1 µM,[3],7%
same,inhibition at 1 µM,[4],66%
same,inhibition at 1 µM,[5],51%
same,inhibition at 1 µM,[6],-10%
same,inhibition at 1 µM,[7],30%
same,inhibition at 1 µM,[8],52%
same,inhibition at 1 µM,[9],48%
same,inhibition at 1 µM,[10],69%
same,inhibition at 1 µM,[11],78%
same,inhibition at 1 µM,[12],53%
same,inhibition at 1 µM,[13],66%
same,inhibition at 1 µM,[14],6%
same,inhibition at 1 µM,[15],51%
same,inhibition at 1 µM,[16],-2%
same,inhibition at 1 µM,[17],59%
same,inhibition at 1 µM,[18],67%
same,inhibition at 1 µM,[19],69%
same,inhibition at 1 µM,[20],55%
same,inhibition at 1 µM,[21],68%
same,inhibition at 1 µM,[22],67%
same,inhibition at 1 µM,[23],7%
same,inhibition at 1 µM,[24],18%
same,inhibition at 1 µM,[25],13%
same,inhibition at 1 µM,[26],13%
same,inhibition at 1 µM,[27],45%
same,inhibition at 1 µM,[28],-1%
same,inhibition at 1 µM,[29],46%
same,inhibition at 1 µM,[30],1%
same,inhibition at 1 µM,[31],21%
same,inhibition at 1 µM,[32],-1%
same,inhibition at 1 µM,[33],20%
same,inhibition at 1 µM,[34],7%
same,inhibition at 1 µM,[35],48%
same,inhibition at 1 µM,[36],66%
same,inhibition at 1 µM,[37],13%
same,inhibition at 1 µM,[38],64%
same,inhibition at 1 µM,[39],26%
same,inhibition at 1 µM,[40],9%
same,inhibition at 1 µM,[41],58%
